From patent publication US20030207843A1, “Treatment of drug-resistant human immunodeficiency virus infection” (priority 1999, published 2003)
Where two headings read alike, the source gives them in different places.

Legend:
HIV-1LAI L74V = experiment: p24 reduction assay in MT-2 cells, L74V; format: cell-based; details: for EC50: L74V
Experimental: (§1) Cells. MT-2 cells (AIDS Research and Reference Reagent Program, National Institute of Allergy and Infectious Diseases, National Institutes of Health) were maintained in RPMI 1640 supplemented with 10% fetal bovine serum (FBS; JRH Biosciences, Lenexa, Kans.), 10 mM HEPES buffer, 50 IU/ml penicillin and 50 μg/ml streptomycin.
(§2) Antiviral Susceptibility Assays. The antiviral activity of each compound was determined by inoculating MT-2 cells with HIV-1LAI at a multiplicity of infection (MOI) of 0.01 TCID50/cell, followed by incubation in the presence of three-fold serial drug dilutions (3 wells per dilution) (see Mellors, et. al., Antimicrob. Agents Chemother. 39:1087-1092). Five or seven days after infection, culture supernatants were harvested, lysed with 0.5% triton-X 100 and assayed for p24 antigen concentration using a commercial ELISA assay (DuPont, NEN Products, Wilmington, Del.). The antiviral activity of the compounds is expressed as the IC50, which is the concentration required to inhibit 50% of p24 antigen production. The fold-resistance of a test virus is calculated by dividing the IC50 of the test virus by the IC50 of the HIV-1LAI control virus.
(§3) Generation of Mutant Recombinant HIV-1. HIV-1 containing the desired mutations were generated by oligonucleotide directed mutagenesis (Altered Sites II, Promega) as previously described (Mellors, et. al., Molecular Pharm. 41:446-451). After mutagenesis, mutant RT was subcloned into the pxxHIV-1LAI cloning vector using the silent XmaI and XbaI restriction sites located at the 5′ and 3′ ends of RT. Clones were DNA sequenced to verify the presence of the desired mutation(s) and electroporated into MT-2 cells as described above to generate infectious mutant recombinant HIV-1.
(§4) Mutant RT was generated via oligonucleotide-directed mutagenesis and ligated into the pXXHIV-1LAI cloning vector. Cloning was facilitated by the presence of two silent restriction sites at the 5′ and 3′ ends (Xma1 and Xba1, respectively) of pXXHIV-1LAI RT. Infectious mutant recombinant HIV-1 was generated by electroporating MT-2 cells with mutated pXXHIV-1LAI clones. The presence of the desired mutations was verified by DNA sequencing.
(§5) The multi-drug resistant HIV-1 strains, 11163p1 and 11588p1, are human clinical isolates having the RT mutations indicated. HIV-1 strains treated with the lipid analogs of the present invention include wild type, e.g., xxLAI, and the like, single mutation, e.g., xxLAI MI 84V (resistant to 3TC), xxLAI L74V (resistant to ddI and ddC), xxLAI K65R (resistant to ddI, ddC, DAPD, DXG, tenofovir, and adefovir), xxLAI T215Y (resistant to AZT), and the like, double mutations, e.g., xxLAI M41 L/T215Y (resistant to AZT), xxLAI MI 84V/T215Y (resistant to 3TC and AZT), and the like, and multiple mutations, e.g., xxLAI 4XAZT ((D67N, K70R, T215Y, K219Q) resistant to AZT)), xxLAI 4XAZT/M184V ((D67N, K70R, M 184V, T215Y, K219Q) resistant to AZT and 3TC), xxLAI M5456-12 (AZT+NNRTI resistant: D67N, K70R, K103N, T215Y), xxLAI G2-3g (AZT/3TC co-resistant: M41L, D67N, M184V, H208Y, L210W, R211K, L214F, T215Y, 1293V, E297A), 11163 (multinucleoside resistant virsus: M41L, A62V, V751, F77L, K103N, F116Y, Q151M, Y181C, M184V), 11588 (multinucleoside resistant virsus: A62V, K65R, K70R, V751, F77L, F116Y, Q151M, M184V, K219Q), and the like.

[1] = system: HIV-1 G2-3g (molecularly cloned isolate co-resistant to AZT and 3TC); experiment: p24 reduction assay in MT-2 cells, G2-3g; format: cell-based; details: for EC50: G2-3g
Experimental: as §1, §2, §5

[2] = system: 11163p3 (multinucleoside resistant clinical isolate); experiment: p24 reduction assay in MT-2 cells, 11163p3; format: cell-based, HIV-1; details: Table 4
Experimental: as §1, §2
(§6) The MNR panel consisted of a virus containing the mutations V75I, F77L, F116Y and […], a virus containing the T69S[SA insert], and a clinical isolate carrying the classic MNR genotype (62V/751/77L/116Y/151M). Each of the PFA invention compounds retained potency against these viruses with fold resistance values of <2.

[3] = system: K (multinucleoside resistant recombinant virus V75I, F77L, F116Y, Q151M); experiment: p24 reduction assay in MT-2 cells, virus K; format: cell-based, HIV-1; details: Table 4
Experimental: as §1, §2, §6

HIV-1LAI M184V = experiment: p24 reduction assay in MT-2 cells, M184V; format: cell-based; details: for EC50: M184V
Experimental: as §1, §2, §3, §4, §5

[4] = system: HIV-1LAI 4XAZT/Q161L/H208Y; experiment: p24 reduction assay in MT-2 cells, 4XAZT/Q161L/H208Y; format: cell-based; details: Table 7
Experimental: as §1, §2, §3, §4
(§7) Invention compounds were also evaluated against a panel of HIV-1LAI derived recombinants resistant to PFA and the PFA invention compounds, as shown in Table 7.

[5] = system: HIV-1LAI 4XAZT (D67N, K70R, T215Y, K219Q); experiment: p24 reduction assay in MT-2 cells, 4XAZT; format: cell-based; details: for EC50: read-out: EC50; for Fold-resistance: 4XAZT relative to wild type virus
Experimental: as §1, §2, §3, §4, §5

HIV-1LAI E89K = experiment: p24 reduction assay in MT-2 cells, E89K; format: cell-based; details: Table 7
Experimental: as §1, §2, §3, §4, §7

HIV-1LAI Q161L = experiment: p24 reduction assay in MT-2 cells, Q161L; format: cell-based; details: Table 7
Experimental: as §1, §2, §3, §4, §7

HIV-1LAI W88S = experiment: p24 reduction assay in MT-2 cells, W88S; format: cell-based; details: Human immunodeficiency virus 1, MT2; Table 7; W88S
Experimental: as §1, §2, §3, §4, §7

[6] = Human immunodeficiency virus 1, MT2, Table 1, MOI 0.01
[7] = Human immunodeficiency virus 1, MT2, Table 3, mean ± SD

O=C(O)P(=O)(O)O [PFA, phosphonoformate, reference compound] was tested, and the EC50 (HIV-1LAI L74V; [6]) was 37.4 µM, the EC50 (HIV-1LAI L74V; [7]) was 32.7 ± 9 µM and the Fold-resistance (HIV-1LAI L74V; Table 3, L74V relative to wild type virus) was “(1.9)”. For the same molecule, the EC50 [1, 6] was 7.6 µM, the EC50 ([1]; Human immunodeficiency virus 1, MT2, Table 5, mean ± SD) was 8.85 ± 3.49 µM and the Fold-resistance ([1]; Table 5, G2-3g relative to wild type virus) was “(0.5)”. For the same molecule, the EC50 ([2]; Human immunodeficiency virus 1, MT2, 11163p3, mean ± SD) was 15.5 ± 5.04 µM, the Fold-resistance ([2]; 11163p3 relative to wild type virus) was “(0.9)” and the EC50 ([3]; Human immunodeficiency virus 1, MT2, virus K, mean ± SD) was 21.4 ± 15.6 µM. The Fold-resistance ([3]; virus K relative to wild type virus) was “(0.7)”, the EC50 (HIV-1LAI M184V; [6]) was 15.7 µM and the EC50 (HIV-1LAI M184V; [7]) was 33.4 ± 18.7 µM. The Fold-resistance (HIV-1LAI M184V; Table 3, M184V relative to wild type virus) was “(1.7)”, the EC50 ([4]; Human immunodeficiency virus 1, MT2, 4XAZTQ161L/H208Y) was 43.1 µM and the Fold-resistance ([4]; 4XAZTQ161L/H208Y relative to wild type virus) was 17.50 (2.4). It also gave an EC50 ([5]; Human immunodeficiency virus 1, MT2, Table 1, 4xAZT, MOI 0.01) of 8.82 µM, an EC50 ([5]; Human immunodeficiency virus 1, MT2, Table 5, 4XAZT, mean ± SD) of 12.7 ± 8.07 µM and an EC50 ([5]; Human immunodeficiency virus 1, MT2, Table 7, 4XAZT) of 12.7 µM. For the same molecule, the Fold-resistance ([5]; Table 5) was “(0.7)”, the Fold-resistance ([5]; Table 7) was 8.07 (0.7) and the EC50 (HIV-1LAI E89K; Human immunodeficiency virus 1, MT2, E89K) was 90.2 µM. The Fold-resistance (HIV-1LAI E89K; E89K relative to wild type virus) was 46.24 (6.9), the EC50 (HIV-1LAI Q161L; Human immunodeficiency virus 1, MT2, Q161L) was 115 µM and the Fold-resistance (HIV-1LAI Q161L; Q161L relative to wild type virus) was 14.14 (8.8). It also gave an EC50 (HIV-1LAI W88S) of 67.1 µM.
